Test results: patent US20080286785A1, “Method to predict or monitor the response of a patient to an erbb receptor drug” (AstraZeneca UK Limited, priority 2005, published 2008)
Like-named read-outs stand apart in the source and are kept apart here.

What was measured:
[1] = N. Engl. J. Med. 2004; 350(21):2129-2139; cited from earlier work
[2] = all of the patients treated with gefitinib, 250 mg daily orally
[3] = four patients with EGFR mutations detected in tumour samples
[4] = patients with EGFR mutations in serum
[5] = patients without EGFR mutations in serum
[6] = serum EGFR mutation + by EGFR Scorpion Kit
[7] = serum EGFR mutation + by direct sequence
[8] = serum EGFR mutation − by EGFR Scorpion Kit
[9] = serum EGFR mutation − by direct sequence

SMILES: COc1cc2ncnc(Nc3ccc(F)c(Cl)c3)c2cc1OCCCN1CCOCC1 [gefitinib]
- Response PD (progressive disease), number of patients (NSCLC; 28 patients enrolled, RECIST): 11 n
- Response PR (partial response), number of patients (NSCLC; 28 patients enrolled, RECIST): 9 n
- Response SD (stable disease), number of patients (NSCLC; 28 patients enrolled, RECIST): 8 n
- median OS (NSCLC; [2]): 306 days
- median PFS (NSCLC; [2]): 98 days
- responses to gefitinib: PD, number of patients (NSCLC; [3]): 1
- responses to gefitinib: PR, number of patients (NSCLC; [3]): 2
- responses to gefitinib: SD, number of patients (NSCLC; [3]): 1
- median OS (NSCLC; [4]): 611 days
- median PFS (NSCLC; [4]): 200 days
- median OS (NSCLC; [5]): 232 days
- median PFS (NSCLC; [5]): 46 days
- Response to gefitinib PD, number of patients (NSCLC; [6]): 2
- Response to gefitinib PR/SD, number of patients (NSCLC; [6]): 11
- Response to gefitinib PD, number of patients (NSCLC; [7]): 2
- Response to gefitinib PR/SD, number of patients (NSCLC; [7]): 8
- Response to gefitinib PD, number of patients (NSCLC; [8]): 8
- Response to gefitinib PR/SD, number of patients (NSCLC; [8]): 6
- Response to gefitinib PD, number of patients (NSCLC; [9]): 8
- Response to gefitinib PR/SD, number of patients (NSCLC; [9]): 9
- patients that have a rapid and often dramatic clinical response [1]: about 10%
